In PubChem BioAssay (NCI):
Several values for one entry are separate records, joined by “and”; a condition that tells them apart may be missing. Equal entries are not always repeated.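 All cell lines were grown in 96-well plates and treated with compound for 48 hours. Here, GI50 denotes the concentration required for 50% inhibition of growth. The concentration for full growth arrest is given as TGI.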

Key:
Test in all cases: inhibition of tumour cell growth, NCI panel, 48 h
NCI-H460 lung = tested on: NCI-H460 lung
HS 578T breast = tested on: HS 578T breast
SF-295 CNS = tested on: SF-295 CNS
KM12 colon = tested on: KM12 colon
HCT-116 colon = tested on: HCT-116 colon
SF-268 CNS = tested on: SF-268 CNS
PC-3 prostate = tested on: PC-3 prostate
COLO 205 colon = tested on: COLO 205 colon
MDA-MB-435 = tested on: MDA-MB-435
MDA-MB-231 breast = tested on: MDA-MB-231 breast

Compound	TGI (NCI-H460 lung)	TGI (HS 578T breast)	TGI (SF-295 CNS)	TGI (KM12 colon)	TGI (HCT-116 colon)	TGI (SF-268 CNS)	TGI (PC-3 prostate)	TGI (COLO 205 colon)	TGI (MDA-MB-435)	TGI (MDA-MB-231 breast)	GI50 (NCI-H460 lung)	GI50 (SF-295 CNS)
CC(C)=CCC/C(C)=C/COC(C)(C)C1=CCC(C)CC1 (stereo not drawn) (tested in a mixture with another compound)	> 100 µM	> 100 µM	> 100 µM	> 100 µM	> 100 µM	> 100 µM	> 100 µM	> 100 µM	> 100 µM			
CC12CCC3C(CCC4CC(OC(=O)Cc5ccc(N(CCCl)CCCl)cc5)CCC43C)C1CCC(=O)N2 (stereo not drawn)	22.4 µM		30.3 µM	32.1 µM	28.3 µM	31.1 µM		31.1 µM				
Cc1cc(-c2nc3ccccc3s2)ccc1NC(=O)[C@@H](N)CCCCN	20.8 µM	45.3 µM	10.6 µM	8.03 µM	19.9 µM	14.5 µM	30.1 µM	24.8 µM	10 µM	25.3 µM		
Nc1ccc(-c2nc3ccccc3s2)cc1C(F)(F)F	28.5 µM	43.5 µM	32.1 µM	31.2 µM	26.1 µM	30.4 µM	29.1 µM	36.7 µM	30.2 µM	26.3 µM	14.6 µM	
CC(C(=O)N1C(=O)N(C(=O)C(C)C(O)c2ccccc2)C2CCCCC21)C(O)c1ccccc1 (stereo not drawn)	> 100 µM		> 100 µM	> 100 µM	> 100 µM	> 100 µM		> 100 µM				
O=C(O)c1cc(-c2ccc3c(O)c(O)ccc3c2)ccc1O	> 7.5 µM	> 75 µM	29.1 µM	> 75 µM	30.3 µM	> 75 µM	> 75 µM	> 75 µM	> 75 µM	54.1 µM		
c1csc(-c2ccc(-c3cccs3)c3nsnc23)c1	> 100 µM	47.2 µM	> 100 µM	22.2 µM	> 100 µM	> 59.2 µM	> 100 µM	27.1 µM	> 100 µM	> 31.6 µM		
CC(C)(C)OC(=O)NCCC(N)=S	> 100 µM	> 100 µM	> 100 µM	> 100 µM	> 100 µM	> 100 µM	> 100 µM	> 100 µM	> 100 µM			
CC1=C2C(=C[C@H]3[C@]4(C)CCCC(C)(C)[C@H]4CC[C@]34O[C@H]24)OC1=O	> 100 µM		> 100 µM	> 100 µM	> 100 µM	> 100 µM	> 100 µM	> 100 µM	> 100 µM	> 100 µM		
CSC(=Nc1ccccc1)N(c1ccccc1)c1nc(=[N+](C)C)ss1	18.1 µM		25.1 µM	13.7 µM	12 µM	21.6 µM		3.88 µM				
COc1c(O)c2c3c(c(C)cc(O)c3c1O)C(=O)C(O)(C(C)(C)C(C)=O)C2=O (stereo not drawn)	> 100 µM		71.2 µM and > 100 µM	> 100 µM	> 100 µM	> 100 µM		> 100 µM				25.2 µM and > 100 µM
N#CC(N=Nc1ccc(Cl)cc1)c1nc2ccccc2o1 (stereo not drawn)	> 100 µM	> 100 µM	67.9 µM	> 100 µM	> 100 µM	> 100 µM	> 100 µM	> 100 µM	> 100 µM	> 100 µM		
COc1ccc(CC2c3c(cc(OC)c(OC)c3OC)CCN2C)cc1OC (stereo not drawn)	> 100 µM		> 100 µM	> 100 µM	> 100 µM	> 100 µM						
CC(=O)OCC1OC(n2cc(I)c(=O)[nH]c2=O)C(OC(C)=O)C(OC(C)=O)C1OC(C)=O (stereo not drawn)	> 100 µM		> 100 µM	> 100 µM	> 100 µM	> 100 µM		> 100 µM				
C=C1c2cc3c(cc2CC12Cc1cc4c(cc1C2=O)CCC4)CCC3 (stereo not drawn)	> 100 µM	> 100 µM	> 100 µM		> 100 µM	> 100 µM	> 100 µM		> 100 µM	> 100 µM		
S=C(/N=c1\sc(Nc2ccc(Cl)cc2)nc2sc3c(c12)CCN(N1CCc2c(sc4nc(Nc5ccc(Cl)cc5)s/c(=N\C(=S)Nc5ccc(Cl)cc5)c24)C1)C3)Nc1ccc(Cl)cc1	> 100 µM	> 100 µM	> 100 µM		31.7 µM	> 100 µM	87.9 µM	> 100 µM		35.1 µM		
CCOC(=O)c1c(-c2ccccc2)c(-c2ccccc2)cn1C	> 10 µM	> 10 µM	> 10 µM	> 10 µM		> 10 µM			> 10 µM			
CC1=NN(C(=O)CC(=O)Nc2ccccc2F)C(=O)C1N=Nc1ccccc1[N+](=O)[O-] (stereo not drawn)			> 100 µM	> 100 µM	> 100 µM	> 100 µM		> 100 µM				
CCC1=CC2CN3Cn4c(c(COCc5c6n(c7ccccc57)CN5CC7C=C(CC)C5C6(C(=O)OC)C7)c5ccccc54)C(C(=O)OC)(C2)C13	> 100 µM		> 100 µM	> 100 µM	> 100 µM	> 100 µM		> 100 µM				
NNC1=N/C(=C\c2ccco2)C(Cl)=N1		> 100 µM	> 100 µM	> 100 µM	> 100 µM	> 100 µM	> 100 µM	> 100 µM	> 100 µM	> 100 µM		
CC(=O)Oc1cc(C(F)(F)F)ccc1C(=O)OC1(C)OC(=O)c2ccc(C(F)(F)F)cc2O1 (stereo not drawn)	> 100 µM		> 100 µM	> 100 µM	> 100 µM	> 100 µM	> 100 µM	> 100 µM	> 100 µM	> 100 µM		
COc1ccc(S(=O)(=O)N2C(=O)CCC2C(=O)NN)cc1 (stereo not drawn)	> 100 µM	> 100 µM	> 100 µM	> 100 µM	> 100 µM		> 100 µM	> 100 µM	> 100 µM	> 100 µM		
CN(Cc1ccccc1)c1cc(=O)n(C)c(=O)[nH]1	> 100 µM	> 100 µM	> 100 µM		> 100 µM	> 100 µM	> 100 µM	> 100 µM	> 100 µM	> 100 µM		
N#CC1=C(c2ccccc2)NNC(c2ccc(Cl)cc2)CC1=O (stereo not drawn)	> 100 µM		73.1 µM	> 100 µM	> 100 µM	> 100 µM						
